Data as given in ChEMBL document CHEMBL5291721, “A preclinical secondary pharmacology resource illuminates target-adverse drug reaction associations of marketed drugs” (Nat Commun, 2023).

What was measured:
[1] = molecular target: T1, Muscarinic acetylcholine receptor M2 (Homo sapiens, UniProt P08172); assay type: functional, cell-based
T1 sequence (P08172 whole entry): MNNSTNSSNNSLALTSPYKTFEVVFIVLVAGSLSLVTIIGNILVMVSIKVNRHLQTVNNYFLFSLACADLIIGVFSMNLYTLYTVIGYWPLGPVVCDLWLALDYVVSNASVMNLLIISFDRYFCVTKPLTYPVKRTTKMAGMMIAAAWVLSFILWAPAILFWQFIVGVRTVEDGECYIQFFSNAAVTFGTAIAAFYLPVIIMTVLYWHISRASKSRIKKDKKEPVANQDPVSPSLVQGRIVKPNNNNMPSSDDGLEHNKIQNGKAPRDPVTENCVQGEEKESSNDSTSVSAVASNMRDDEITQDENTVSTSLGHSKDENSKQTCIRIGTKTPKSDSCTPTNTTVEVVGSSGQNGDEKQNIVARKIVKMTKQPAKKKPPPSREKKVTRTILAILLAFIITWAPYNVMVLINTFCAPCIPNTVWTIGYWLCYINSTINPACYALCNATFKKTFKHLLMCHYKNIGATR

[2] = molecular target: Neuronal acetylcholine receptor subunit alpha-4 (Homo sapiens, UniProt P43681)
[3] = molecular target: T2, Alpha-1A adrenergic receptor (Homo sapiens, UniProt P35348); assay type: functional, cell-based
T2 sequence (P35348 whole entry): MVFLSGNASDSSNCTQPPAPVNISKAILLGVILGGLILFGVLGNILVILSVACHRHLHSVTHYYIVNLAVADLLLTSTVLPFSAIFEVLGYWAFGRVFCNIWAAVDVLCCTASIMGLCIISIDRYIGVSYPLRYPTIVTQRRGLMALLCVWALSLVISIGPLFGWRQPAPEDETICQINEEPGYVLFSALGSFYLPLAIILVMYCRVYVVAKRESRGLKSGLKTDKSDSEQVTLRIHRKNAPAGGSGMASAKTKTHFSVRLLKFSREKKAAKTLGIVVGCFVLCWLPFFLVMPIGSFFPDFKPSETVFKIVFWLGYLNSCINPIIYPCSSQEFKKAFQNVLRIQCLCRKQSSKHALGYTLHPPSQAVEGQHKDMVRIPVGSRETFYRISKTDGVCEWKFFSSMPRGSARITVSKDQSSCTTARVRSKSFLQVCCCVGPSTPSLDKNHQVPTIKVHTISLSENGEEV

Adenosine receptor A3 = molecular target: T3, Adenosine receptor A3 (Homo sapiens, UniProt P0DMS8)
T3 sequence (P0DMS8 whole entry): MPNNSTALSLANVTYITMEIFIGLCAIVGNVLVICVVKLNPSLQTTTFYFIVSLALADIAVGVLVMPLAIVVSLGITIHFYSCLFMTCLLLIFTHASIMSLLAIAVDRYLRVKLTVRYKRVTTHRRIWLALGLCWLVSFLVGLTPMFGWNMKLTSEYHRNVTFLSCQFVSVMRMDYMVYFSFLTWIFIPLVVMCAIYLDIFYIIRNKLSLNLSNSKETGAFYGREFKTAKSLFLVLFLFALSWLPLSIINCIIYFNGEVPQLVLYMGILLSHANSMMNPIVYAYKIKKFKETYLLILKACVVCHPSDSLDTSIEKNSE

[4] = molecular target: T1, Muscarinic acetylcholine receptor M2; assay type: functional, cell-based; remark: listed apart in the source
[5] = molecular target: T4, Type-1 angiotensin II receptor (Homo sapiens, UniProt P30556)
T4 sequence (P30556 whole entry): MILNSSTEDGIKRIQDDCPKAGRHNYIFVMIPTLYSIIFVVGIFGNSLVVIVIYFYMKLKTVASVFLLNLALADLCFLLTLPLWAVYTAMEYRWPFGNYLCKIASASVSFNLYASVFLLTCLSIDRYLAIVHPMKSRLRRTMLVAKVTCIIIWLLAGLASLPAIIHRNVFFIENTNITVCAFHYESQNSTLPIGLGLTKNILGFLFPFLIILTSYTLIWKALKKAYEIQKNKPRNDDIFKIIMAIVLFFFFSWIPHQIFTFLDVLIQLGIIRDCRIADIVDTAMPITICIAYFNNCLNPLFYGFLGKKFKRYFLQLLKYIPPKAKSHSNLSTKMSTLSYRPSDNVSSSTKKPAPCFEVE

[6] = molecular target: 5-hydroxytryptamine receptor 2A (Homo sapiens, UniProt P28223); assay type: functional, cell-based
[7] = molecular target: Beta-1 adrenergic receptor (Homo sapiens, UniProt P08588); assay type: functional
[8] = molecular target: T5, Alpha-2A adrenergic receptor (Homo sapiens, UniProt P08913); assay type: functional, cell-based
T5 sequence (P08913 whole entry): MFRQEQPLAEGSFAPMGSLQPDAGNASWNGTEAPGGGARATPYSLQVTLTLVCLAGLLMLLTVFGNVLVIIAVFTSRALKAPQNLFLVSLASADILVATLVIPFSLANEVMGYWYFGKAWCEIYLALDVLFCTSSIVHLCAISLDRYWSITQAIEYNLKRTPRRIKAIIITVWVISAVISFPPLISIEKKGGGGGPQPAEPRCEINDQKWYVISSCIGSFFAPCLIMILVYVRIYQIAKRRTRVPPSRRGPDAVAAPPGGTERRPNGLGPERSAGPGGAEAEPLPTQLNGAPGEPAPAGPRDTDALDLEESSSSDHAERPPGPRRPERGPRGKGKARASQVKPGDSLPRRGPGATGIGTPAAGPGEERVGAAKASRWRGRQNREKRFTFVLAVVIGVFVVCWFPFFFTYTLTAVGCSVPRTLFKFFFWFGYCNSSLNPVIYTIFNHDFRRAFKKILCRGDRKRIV

D(1A) dopamine receptor = D(1A) dopamine receptor (Homo sapiens, UniProt P21728); assay type: functional, cell-based
Adenosine receptor A1 = molecular target: T6, Adenosine receptor A1 (Homo sapiens, UniProt P30542)
T6 sequence (P30542 whole entry): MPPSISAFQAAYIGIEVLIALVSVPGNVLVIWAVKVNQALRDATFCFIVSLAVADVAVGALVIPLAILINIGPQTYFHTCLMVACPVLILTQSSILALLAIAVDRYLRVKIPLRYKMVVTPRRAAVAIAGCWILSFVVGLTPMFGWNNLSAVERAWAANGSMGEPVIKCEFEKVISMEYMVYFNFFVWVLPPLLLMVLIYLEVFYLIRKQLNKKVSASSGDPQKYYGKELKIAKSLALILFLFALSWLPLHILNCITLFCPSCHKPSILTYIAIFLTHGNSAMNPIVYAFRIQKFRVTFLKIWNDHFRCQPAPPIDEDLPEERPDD

[9] = molecular target: Kappa-type opioid receptor (Homo sapiens, UniProt P41145)
Further: assay procedure not described here.

Chain of Kappa-type opioid receptor (P41145 whole entry): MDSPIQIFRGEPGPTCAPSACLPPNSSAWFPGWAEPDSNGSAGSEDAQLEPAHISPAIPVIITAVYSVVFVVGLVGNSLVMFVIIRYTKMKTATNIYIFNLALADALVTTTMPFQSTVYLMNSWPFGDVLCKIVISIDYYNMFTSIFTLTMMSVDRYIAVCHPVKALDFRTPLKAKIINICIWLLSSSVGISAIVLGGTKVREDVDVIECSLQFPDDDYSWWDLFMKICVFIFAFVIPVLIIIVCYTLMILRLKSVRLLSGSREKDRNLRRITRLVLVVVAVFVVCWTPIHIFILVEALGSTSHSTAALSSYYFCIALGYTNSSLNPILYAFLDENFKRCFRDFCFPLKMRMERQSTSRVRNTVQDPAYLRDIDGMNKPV
Chain of 5-hydroxytryptamine receptor 2A (P28223 whole entry): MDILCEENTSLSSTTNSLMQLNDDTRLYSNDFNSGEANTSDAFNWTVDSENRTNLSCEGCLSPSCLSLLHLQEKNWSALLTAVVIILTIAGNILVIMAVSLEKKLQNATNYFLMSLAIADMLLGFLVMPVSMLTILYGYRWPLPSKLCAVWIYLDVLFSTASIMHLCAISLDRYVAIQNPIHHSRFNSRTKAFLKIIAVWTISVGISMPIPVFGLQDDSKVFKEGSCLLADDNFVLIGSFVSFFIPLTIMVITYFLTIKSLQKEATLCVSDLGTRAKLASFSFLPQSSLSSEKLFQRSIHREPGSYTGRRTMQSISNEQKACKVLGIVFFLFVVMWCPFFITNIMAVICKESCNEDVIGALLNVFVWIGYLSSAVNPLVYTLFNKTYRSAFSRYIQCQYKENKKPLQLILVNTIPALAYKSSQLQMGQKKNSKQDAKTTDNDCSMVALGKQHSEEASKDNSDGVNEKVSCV
Chain of Neuronal acetylcholine receptor subunit alpha-4 (P43681 whole entry): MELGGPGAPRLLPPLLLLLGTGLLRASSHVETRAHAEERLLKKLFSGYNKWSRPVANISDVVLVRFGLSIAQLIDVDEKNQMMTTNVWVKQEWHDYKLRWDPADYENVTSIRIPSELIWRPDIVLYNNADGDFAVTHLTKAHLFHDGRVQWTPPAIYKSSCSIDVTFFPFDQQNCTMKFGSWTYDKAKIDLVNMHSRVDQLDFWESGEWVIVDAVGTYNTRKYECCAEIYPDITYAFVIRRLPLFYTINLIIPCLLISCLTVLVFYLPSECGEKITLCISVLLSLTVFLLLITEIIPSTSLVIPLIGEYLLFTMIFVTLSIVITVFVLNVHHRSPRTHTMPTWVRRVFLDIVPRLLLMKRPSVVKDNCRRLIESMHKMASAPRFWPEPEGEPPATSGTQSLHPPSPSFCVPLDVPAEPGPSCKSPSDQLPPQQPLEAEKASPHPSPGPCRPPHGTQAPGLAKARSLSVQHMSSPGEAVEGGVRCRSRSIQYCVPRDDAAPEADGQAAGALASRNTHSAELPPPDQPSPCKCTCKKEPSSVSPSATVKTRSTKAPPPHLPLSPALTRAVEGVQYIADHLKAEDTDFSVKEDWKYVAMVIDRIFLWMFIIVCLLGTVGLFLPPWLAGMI
Chain of Beta-1 adrenergic receptor (P08588 whole entry): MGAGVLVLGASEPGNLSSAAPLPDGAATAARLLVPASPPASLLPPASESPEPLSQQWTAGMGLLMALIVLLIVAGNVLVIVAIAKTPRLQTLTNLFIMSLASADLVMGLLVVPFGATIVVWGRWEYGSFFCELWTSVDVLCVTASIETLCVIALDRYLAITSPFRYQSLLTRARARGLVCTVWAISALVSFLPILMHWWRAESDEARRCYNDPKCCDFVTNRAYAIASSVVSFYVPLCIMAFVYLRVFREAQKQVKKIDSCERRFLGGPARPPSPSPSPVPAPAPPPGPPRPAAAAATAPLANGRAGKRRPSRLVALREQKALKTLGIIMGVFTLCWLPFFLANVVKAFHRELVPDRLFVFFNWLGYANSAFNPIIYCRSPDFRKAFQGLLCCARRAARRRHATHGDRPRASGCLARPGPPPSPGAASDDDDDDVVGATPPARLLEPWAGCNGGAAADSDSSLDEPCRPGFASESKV
Chain of D(1A) dopamine receptor (P21728 whole entry): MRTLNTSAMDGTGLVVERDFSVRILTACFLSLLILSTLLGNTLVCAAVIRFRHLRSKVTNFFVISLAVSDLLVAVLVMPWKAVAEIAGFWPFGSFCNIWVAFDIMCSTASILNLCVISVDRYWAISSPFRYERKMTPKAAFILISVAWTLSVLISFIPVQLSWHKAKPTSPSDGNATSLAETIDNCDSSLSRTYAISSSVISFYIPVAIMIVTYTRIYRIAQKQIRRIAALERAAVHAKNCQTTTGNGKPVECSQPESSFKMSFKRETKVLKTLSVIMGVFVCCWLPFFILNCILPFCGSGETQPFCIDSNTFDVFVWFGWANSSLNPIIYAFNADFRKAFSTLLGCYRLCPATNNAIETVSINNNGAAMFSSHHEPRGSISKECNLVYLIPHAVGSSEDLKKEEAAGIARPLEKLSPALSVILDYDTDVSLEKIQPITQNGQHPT

AC50 [1] [µM] | AC50 [2] [µM] | AC50 [3] [µM] | AC50 (Adenosine receptor A3) [µM] | AC50 [4] [µM] | AC50 [5] [µM] | AC50 [6] [µM] | AC50 [7] [µM] | AC50 [8] [µM] | AC50 (D(1A) dopamine receptor) [µM] | AC50 (Adenosine receptor A1) [µM] | AC50 [9] [µM] | SMILES
> 30 | > 30 | > 30 | 13 | > 30 | > 30 | > 30 | > 30 | > 30 | > 30 | > 30 | > 30 | C[C@]12C=CC(=O)C=C1C(Cl)=C[C@@H]1[C@@H]2[C@@H](O)C[C@@]2(C)[C@H]1CC[C@]2(O)C(=O)CO [CLOPREDNOL]
> 30 | > 30 | > 30 | > 30 | 20 | > 30 | > 30 | > 30 | > 30 | > 30 | > 30 | 19 | C[C@]12CCC(=O)C=C1C=C[C@@H]1[C@@H]2CC[C@@]2(C)[C@H]1CC[C@@]21CCC(=O)O1 [CANRENONE]
